Test results taken from patent US8247211B2, “Glycopeptide antibiotics” (American Cyanamid Company, priority 2001, dated 2012).
Values after ≈ are worked out from the molar mass of the structure shown. One block for each compound: values may come before it.

Legend:
Assay in all cases: In vitro antibacterial evaluation: minimum inhibitory concentration (MIC), broth dilution method
Type in all cases: cell-based
[1] = system: Enterococcus sp.; details: broth dilution, 5×10^5 CFU/mL, 18 hours at 35° C.
Procedure: (§1) The minimum inhibitory concentration (MIC), the lowest concentration of the antibiotic which inhibits growth of the test organism, is determined by the broth dilution method using Muller-Hinton II […] (Baltimore Biological Laboratories) following the recommendations of the National Committee for Clinical Laboratory Standards [Methods for dilution antimicrobial susceptibility tests for bacteria that grow aerobically, approved standard M7-A2, National Committee for Clinical Laboratory Standards, Villanova, Pa].
(§2) An inoculum level of 5×10^5 CFU/mL, and a range of antibiotic concentrations (64-0.06 μg/mL) is used. […] The test organisms include a spectrum of Gram-positive bacteria comprised of Staphylococcus sp., Streptococcus sp. and Enterococcus sp. These organisms include recent clinical isolates that are resistant to methicillin, penicillin and/or vancomycin.

[2] = system: Escherichia coli; details: 5×10^5 CFU/mL, 18 hours at 35° C.
Procedure: as §1, §2

[3] = system: Staphylococcus sp.; details: for MIC Staphylococcus aureus (ATCC 29213): strain ATCC 29213; for MIC Staphylococcus aureus (GC 1131): strain GC 1131; for MIC Staphylococcus aureus (GC 3051): strain GC 3051; for MIC Staphylococcus aureus (GC 3053): strain GC 3053; for MIC Staphylococcus aureus (GC 4541): strain GC 4541; for MIC Staphylococcus aureus (GC 4542): strain GC 4542; for MIC Staphylococcus aureus (GC 4544): strain GC 4544; for MIC Staphylococcus aureus (GC 4545): strain GC 4545
Procedure: as §1, §2

[4] = system: Streptococcus sp.; details: broth dilution, 5×10^5 CFU/mL, 18 hours at 35° C.
Procedure: as §1, §2

[5] = broth dilution, 5×10^5 CFU/mL, 18 hours at 35° C.
[6] = broth dilution, 18 hours at 35° C.
[7] = strain GC 4543, broth dilution, 18 hours at 35° C.
[8] = strain GC 4546, broth dilution, 18 hours at 35° C.
[9] = strain GC 4547, broth dilution, 18 hours at 35° C.
[10] = strain GC 4548, broth dilution, 18 hours at 35° C.
[11] = strain GC 4549, broth dilution, 18 hours at 35° C.
[12] = strain GC 4551, broth dilution, 18 hours at 35° C.
[13] = strain GC 6257, broth dilution, 18 hours at 35° C.

MIC Enterococccus avium (GC 4558) [1]: 2 µg/mL (≈ 1.37 µM)
MIC Enterococccus faecalis (ATCC 29212) [1]: 2 µg/mL (≈ 1.37 µM)
MIC Enterococccus faecalis (GC 2691) [1]: 2 µg/mL (≈ 1.37 µM)
MIC Enterococccus faecalis (GC 3059) [1]: 2 µg/mL (≈ 1.37 µM)
MIC Enterococccus faecalis (GC 4552) [1]: 2 µg/mL (≈ 1.37 µM)
MIC Enterococccus faecalis (GC 4553) [1]: 2 µg/mL (≈ 1.37 µM)
MIC Enterococccus faecalis (GC 4554) [1]: 2 µg/mL (≈ 1.37 µM)
MIC Enterococccus faecalis (GC 6189) [1]: 2 µg/mL (≈ 1.37 µM)
MIC Enterococccus faecium (GC 2243) [1]: 2 µg/mL (≈ 1.37 µM)
MIC Enterococccus faecium (GC 4556) [1]: 2 µg/mL (≈ 1.37 µM)
MIC Enterococccus faecium (GC 4557) [1]: 2 µg/mL (≈ 1.37 µM)
MIC Enterococcus faecalis (GC 2242) [1]: 2 µg/mL (≈ 1.37 µM)
MIC Escherichia coli (ATCC 25922) [2]: 32 µg/mL (≈ 22 µM)
MIC Escherichia coli (GC 4559) [2]: 32 µg/mL (≈ 22 µM)
MIC Escherichia coli (GC 4560) [2]: 2 µg/mL (≈ 1.37 µM)
MIC Coagulase Negative Staphylococcus (GC 4547) [3, 5]: 2 µg/mL (≈ 1.37 µM)
MIC Coagulase Negative Staphylococcus (GC 4548) [3, 5]: 1 µg/mL (≈ 0.687 µM)
MIC Coagulase Negative Staphylococcus (GC 4549) [3, 5]: 1 µg/mL (≈ 0.687 µM)
MIC Coagulase Negative Staphylococcus (GC 4551) [3, 5]: 4 µg/mL (≈ 2.75 µM)
MIC Coagulase Negative Staphylococcus (GC 6257) [3, 5]: 1 µg/mL (≈ 0.687 µM)
MIC Staphylococcus aureus-SMITH (GC 4543) [3, 5]: 2 µg/mL (≈ 1.37 µM)
MIC Staphylococcus aureus (ATCC 29213) [3]: 4 µg/mL (≈ 2.75 µM)
MIC Staphylococcus aureus (ATCC 29213) [3, 6]: 4 µg/mL (≈ 2.75 µM)
MIC Staphylococcus aureus (GC 1131) [3]: 2 µg/mL (≈ 1.37 µM)
MIC Staphylococcus aureus (GC 1131) [3, 6]: 2 µg/mL (≈ 1.37 µM)
MIC Staphylococcus aureus (GC 3051) [3]: 2 µg/mL (≈ 1.37 µM)
MIC Staphylococcus aureus (GC 3051) [3, 6]: 2 µg/mL (≈ 1.37 µM)
MIC Staphylococcus aureus (GC 3053) [3]: 2 µg/mL (≈ 1.37 µM)
MIC Staphylococcus aureus (GC 3053) [3, 6]: 2 µg/mL (≈ 1.37 µM)
MIC Staphylococcus aureus (GC 4541) [3]: 2 µg/mL (≈ 1.37 µM)
MIC Staphylococcus aureus (GC 4541) [3, 6]: 2 µg/mL (≈ 1.37 µM)
MIC Staphylococcus aureus (GC 4542) [3]: 2 µg/mL (≈ 1.37 µM)
MIC Staphylococcus aureus (GC 4542) [3, 6]: 2 µg/mL (≈ 1.37 µM)
MIC Staphylococcus aureus-SMITH (GC 4543) [3, 7]: 2 µg/mL (≈ 1.37 µM)
MIC Staphylococcus aureus (GC 4544) [3]: 2 µg/mL (≈ 1.37 µM)
MIC Staphylococcus aureus (GC 4544) [3, 6]: 2 µg/mL (≈ 1.37 µM)
MIC Staphylococcus aureus (GC 4545) [3]: 2 µg/mL (≈ 1.37 µM)
MIC Staphylococcus aureus (GC 4545) [3, 6]: 2 µg/mL (≈ 1.37 µM)
MIC Coagulase Negative Staphylococcus (GC 4547) [3, 9]: 2 µg/mL (≈ 1.37 µM)
MIC Coagulase Negative Staphylococcus (GC 4548) [3, 10]: 1 µg/mL (≈ 0.687 µM)
MIC Coagulase Negative Staphylococcus (GC 4549) [3, 11]: 1 µg/mL (≈ 0.687 µM)
MIC Coagulase Negative Staphylococcus (GC 4551) [3, 12]: 4 µg/mL (≈ 2.75 µM)
MIC Coagulase Negative Staphylococcus (GC 6257) [3, 13]: 1 µg/mL (≈ 0.687 µM)
MIC Streptococcus agalactiae (GC 4564) [4]: <0.06 µg/mL
MIC Streptococcus pneumoniae (GC 1894) [4]: <0.06 µg/mL
MIC Streptococcus pneumoniae (GC 4565) [4]: <0.06 µg/mL
MIC Streptococcus pneumonine (ATCC 6301) [4]: <0.06 µg/mL
MIC Streptococcus pyogenes (GC 4563) [4]: <0.06 µg/mL
Compound: CC(c1ccccc1)C1NC(=O)CNC(=O)C(CO)NC(=O)C(C(O)C2CNC(=N)N2C2OC(CO)C(O)C(O)C2O)NC(=O)C(C(O)C2CNC(=N)N2)NC(=O)C(Cc2ccc(OC3OC(CO)C(OC4OC5COC(CC67CC8CC(CC(C8)C6)C7)OC5C(O)C4O)C(O)C3O)cc2)NC1=O (stereo not shown) [Example 129]
MIC Staphylococcus haemolyticus (GC 4546) [3, 5]: 2 µg/mL (≈ 1.37 µM)
MIC Staphylococcus haemolyticus (GC 4546) [3, 8]: 2 µg/mL (≈ 1.37 µM)

MIC Enterococccus avium (GC 4558) [1]: 16 µg/mL (≈ 9.69 µM)
MIC Enterococccus faecalis (ATCC 29212) [1]: 32 µg/mL (≈ 19.4 µM)
MIC Enterococccus faecalis (GC 2691) [1]: 32 µg/mL (≈ 19.4 µM)
MIC Enterococccus faecalis (GC 3059) [1]: 64 µg/mL (≈ 38.7 µM)
MIC Enterococccus faecalis (GC 4552) [1]: 32 µg/mL (≈ 19.4 µM)
MIC Enterococccus faecalis (GC 4553) [1]: 8 µg/mL (≈ 4.84 µM)
MIC Enterococccus faecalis (GC 4554) [1]: 32 µg/mL (≈ 19.4 µM)
MIC Enterococccus faecalis (GC 6189) [1]: 32 µg/mL (≈ 19.4 µM)
MIC Enterococccus faecium (GC 2243) [1]: 8 µg/mL (≈ 4.84 µM)
MIC Enterococccus faecium (GC 4556) [1]: 64 µg/mL (≈ 38.7 µM)
MIC Enterococccus faecium (GC 4557) [1]: 32 µg/mL (≈ 19.4 µM)
MIC Enterococcus faecalis (GC 2242) [1]: 32 µg/mL (≈ 19.4 µM)
MIC Escherichia coli (ATCC 25922) [2]: >64 µg/mL
MIC Escherichia coli (GC 4559) [2]: >64 µg/mL
MIC Escherichia coli (GC 4560) [2]: 64 µg/mL (≈ 38.7 µM)
MIC Coagulase Negative Staphylococcus (GC 4547) [3, 5]: 32 µg/mL (≈ 19.4 µM)
MIC Coagulase Negative Staphylococcus (GC 4548) [3, 5]: 32 µg/mL (≈ 19.4 µM)
MIC Coagulase Negative Staphylococcus (GC 4549) [3, 5]: 16 µg/mL (≈ 9.69 µM)
MIC Coagulase Negative Staphylococcus (GC 4551) [3, 5]: 32 µg/mL (≈ 19.4 µM)
MIC Coagulase Negative Staphylococcus (GC 6257) [3, 5]: 32 µg/mL (≈ 19.4 µM)
MIC Staphylococcus aureus-SMITH (GC 4543) [3, 5]: 32 µg/mL (≈ 19.4 µM)
MIC Staphylococcus aureus (ATCC 29213) [3]: 32 µg/mL (≈ 19.4 µM)
MIC Staphylococcus aureus (ATCC 29213) [3, 6]: 32 µg/mL (≈ 19.4 µM)
MIC Staphylococcus aureus (GC 1131) [3]: 32 µg/mL (≈ 19.4 µM)
MIC Staphylococcus aureus (GC 1131) [3, 6]: 32 µg/mL (≈ 19.4 µM)
MIC Staphylococcus aureus (GC 3051) [3]: 32 µg/mL (≈ 19.4 µM)
MIC Staphylococcus aureus (GC 3051) [3, 6]: 32 µg/mL (≈ 19.4 µM)
MIC Staphylococcus aureus (GC 3053) [3]: 32 µg/mL (≈ 19.4 µM)
MIC Staphylococcus aureus (GC 3053) [3, 6]: 32 µg/mL (≈ 19.4 µM)
MIC Staphylococcus aureus (GC 4541) [3]: 32 µg/mL (≈ 19.4 µM)
MIC Staphylococcus aureus (GC 4541) [3, 6]: 32 µg/mL (≈ 19.4 µM)
MIC Staphylococcus aureus (GC 4542) [3]: 32 µg/mL (≈ 19.4 µM)
MIC Staphylococcus aureus (GC 4542) [3, 6]: 32 µg/mL (≈ 19.4 µM)
MIC Staphylococcus aureus-SMITH (GC 4543) [3, 7]: 32 µg/mL (≈ 19.4 µM)
MIC Staphylococcus aureus (GC 4544) [3]: 32 µg/mL (≈ 19.4 µM)
MIC Staphylococcus aureus (GC 4544) [3, 6]: 32 µg/mL (≈ 19.4 µM)
MIC Staphylococcus aureus (GC 4545) [3]: 32 µg/mL (≈ 19.4 µM)
MIC Staphylococcus aureus (GC 4545) [3, 6]: 32 µg/mL (≈ 19.4 µM)
MIC Coagulase Negative Staphylococcus (GC 4547) [3, 9]: 32 µg/mL (≈ 19.4 µM)
MIC Coagulase Negative Staphylococcus (GC 4548) [3, 10]: 32 µg/mL (≈ 19.4 µM)
MIC Coagulase Negative Staphylococcus (GC 4549) [3, 11]: 16 µg/mL (≈ 9.69 µM)
MIC Coagulase Negative Staphylococcus (GC 4551) [3, 12]: 32 µg/mL (≈ 19.4 µM)
MIC Coagulase Negative Staphylococcus (GC 6257) [3, 13]: 32 µg/mL (≈ 19.4 µM)
MIC Streptococcus agalactiae (GC 4564) [4]: 8 µg/mL (≈ 4.84 µM)
MIC Streptococcus pneumoniae (GC 1894) [4]: 1 µg/mL (≈ 0.605 µM)
MIC Streptococcus pneumoniae (GC 4565) [4]: 4 µg/mL (≈ 2.42 µM)
MIC Streptococcus pneumonine (ATCC 6301) [4]: 8 µg/mL (≈ 4.84 µM)
MIC Streptococcus pyogenes (GC 4563) [4]: 16 µg/mL (≈ 9.69 µM)
Compound: COC1CCC2(C)C(CCC3C2CCC2(C)C(C(C)CCC4OCC5OC(OC6C(CO)OC(Oc7ccc(CC8NC(=O)C(C(C)c9ccccc9)NC(=O)CNC(=O)C(CO)NC(=O)C(C(O)C9CNC(=N)N9C9OC(CO)C(O)C(O)C9O)NC(=O)C(C(O)C9CNC(=N)N9)NC8=O)cc7)C(O)C6O)C(O)C(O)C5O4)CCC32)C1 (stereo not drawn) [Example 130, Cyclo[glycyl-β-methylphenylalanyl-O-[4-O-[4,6-O-(3-methoxycholan-24-ylidene)hexopyranosyl]hexopyranosyl]tyrosyl-3-(2-iminoimidazolidin-4-yl)seryl-3-(3-hexopyranosyl-2-iminoimidazolidin-4-yl)serylseryl]]
MIC Staphylococcus haemolyticus (GC 4546) [3, 5]: 32 µg/mL (≈ 19.4 µM)
MIC Staphylococcus haemolyticus (GC 4546) [3, 8]: 32 µg/mL (≈ 19.4 µM)
